Assays:
[1] = in vivo
[2] = parameters: species or system human; conditions: in vivo
Excerpt: Normal volunteers with no evidence or history of diabetes mellitus or of cardiac, liver, renal or pulmonary diseases were studied. The subjects consisted of 3 males and 1 female, ranging in age from 31 to 37 years, in body weight from 47 to 92 kg, and in body mass index (BMI) from 19.2 to 25.5. The purpose and possible risks of the study were explained to all subjects, and their voluntary written consent was obtained. The study protocol was approved by the Committee for the Protection of Human Subjects of the Institutional Review Board at Vanderbilt University School of Medicine. All studies were performed at the Clinical Research Center (CRC). Subjects were placed on balanced weight-maintenance diets for at least one week before the start of the study. Meat was excluded from the subjects' diets for three days before the study and during the study.
All studies were performed after a 10-12 hour overnight fast. On the morning of the experiment (6.30 to 7.00 hours), an 18-gauge Angiocatheter™ (Benton Dickinson, Sandy, Utah) was placed in a superficial hand vein of the nondominant arm for blood sampling. The hand was heated to 55° C. to ensure complete arterialization (Abumrad, N.N. et al., "Use of a heated superficial hand vein as an alternative site for the measurement of amino acid concentrations and for the study of glucose and alanine kinetics in man," Metabolism (1981) 30:936-940). In addition, a 16-gauge angiocatheter was inserted into the contralateral forearm vein for the infusion of L-3-[methyl-^2 H3 ]-histidine (MSD Isotopes, Montreal, Canada). Finally, another catheter was threaded retrograde into the brachial vein of the dominant arm and used for sampling of the forearm tissue.
Each study was four days in duration. Starting at t=0 (8.00 hours), subjects were administered a bolus infusion of L-3-[methyl^2 H3 ]-histidine (D3 -3-methylhistidine) at 0.13 μmol/kg into the forearm vein of the dominant arm. The infusate was passed through a Millex-GS sterilizing filter (0.22 μm; Millipore Products Divisions, Bedford, Mass.) before the infusion. Blood samples were obtained from the superficial hand vein and from the deep forearm vein at 0, 1, 2, 5, 10, 15, 30, 45, 90, 150, 210, 270, 330, and 720 min. postinjection. During this time, the subjects were required to stay at the Clinical Research Center, although they were allowed to ambulate freely within their rooms. Free access to food and drink was allowed after the 330-min sample. After 720 min, the catheters were removed and the patients were allowed to go home. For the following three days, the subjects returned to the CRC each morning before eating for further blood sampling by percutaneous venous puncture at 1,440, 2,880, and 4,320 min postinjection. Urine was collected over 24 hour periods the day before and for three days after tracer infusion.
Blood was collected in heparinized syringes, transferred to tubes containing Na2 EDTA (15 mg/tube), and centrifuged. The plasma obtained was immediately placed on ice. An aliquot of the plasma was processed for determination of 3-methylhistidine concentration as well as the L-3-[methyl-^2 H3 ]-histidine:3-methylhistidine isotope enrichment. The remainder of the plasma was frozen at -70° C. The urine obtained was processed for the determination of creatinine both as a measure of the completeness of the collection (Pencharz, P. B. et al., "The effect of an energy-restricted diet on the protein metabolism of obese adolescents: nitrogen-balance and whole-body nitrogen turnover," Clin. Sci. (1980) 59:13-18), and for the estimation of lean body mass (Blackburn, G. L. et al., "Nutritional and metabolic assessment of hospitalized patients," J. Parenter. Enteral. Nutr. (1977) 1:11-22). […]

[3] = in vivo; remark: listed apart in the source
Procedure: The diversity of models between cattle, dogs and humans and sheep and pigs reflects differences in known physiology. In each species the tracer is injected into compartment 1 which, based on size (volume and mass), is similar to plasma and extracellular water space. Compartment 1 was the sampling compartment and the compartment from which the steady state calculations were initiated. All models for each species can be resolved by sampling only plasma, except in sheep--the model in FIG. 4 required the sampling of plasma and urine. However, the sheep model can be resolved from plasma kinetics of 3-methylhistidine if the rate of exit from compartment 1 is fixed. From the steady state calculations the de novo production of 3-methylhistidine was obtained into compartment 3 for humans, cattle and dogs and into compartment 2 for sheep and pigs. The de novo production of 3-methylhistidine could be placed as an entry into compartment 2 and an identical rate calculated. The compartment identity of compartment 2 and 3 is intracellular pools of 3-methylhistidine. The metabolic form of 3-methylhistidine in these compartments may not be identical nor is the identity of compartment 2 or 3 for one species the same identity for another species (i.e., cattle vs. sheep). The models also depict differences in the route by which 3-methylhistidine exits the system. […]

[4] = Safety and excretion of administered D3-3-methylhistidine; conditions: small quantities administered
[5] = adult human; cited from earlier work
[6] = rat; cited from earlier work

Row | Compound | Urinary excretion [1] | Decay of D3-3-methylhistidine:3-methylhistidine ratio in plasma [2] | Exponential decay curve of tracer [3] | Toxicity [4] | Share of daily 3-methylhistidine excreted [5] | Form excreted in urine [6]
1 | [2H]C([2H])([2H])n1cnc(C[C@H](N)C(=O)O)c1 [D3-3-methylhistidine, 3-[^2 H3-methyl]-methylhistidine] | quantitatively excreted in urine | rapid decrease in the D3- 3-methylhistidine:3-methylhistidine ratio during the first 5 hours followed by a slow linear (semilog plot) decay over the three days of blood sampling | rapid decay over the first 2-3 hours, followed by a slower decay through 12 hours, and a steady state decay over the remainder of the study | non-toxic |  | 
2 | N-acetyl-3-methylhistidine |  |  |  |  | less than 5% | major form excreted in the rat
